Values joined by “and” are separate entries in the source; they are usually repeats but may differ in a detail not shown here. Equal entries are not always repeated. Where a SMILES comes first, the peptide text is derived from it. Bridges are numbered along the chain shown (N, C = ends). [ ]: non-standard residue; d: D form.
Tests used:
GC-C receptor = GC-C receptor (Homo sapiens, UniProt P25092); assay: cell-based
in vitro [1] = conditions: pig, simulated gi fluid, pH 6.8
[2] = in vivo; cited from earlier work
in vitro [3] = conditions: simulated gi fluid, pH 1.3
[4] = target: guanylate cyclase-C (human (endogenous in T84)) (UniProt P25092)
Chain of guanylate cyclase-C (human (endogenous in T84)) (P25092 24-1073): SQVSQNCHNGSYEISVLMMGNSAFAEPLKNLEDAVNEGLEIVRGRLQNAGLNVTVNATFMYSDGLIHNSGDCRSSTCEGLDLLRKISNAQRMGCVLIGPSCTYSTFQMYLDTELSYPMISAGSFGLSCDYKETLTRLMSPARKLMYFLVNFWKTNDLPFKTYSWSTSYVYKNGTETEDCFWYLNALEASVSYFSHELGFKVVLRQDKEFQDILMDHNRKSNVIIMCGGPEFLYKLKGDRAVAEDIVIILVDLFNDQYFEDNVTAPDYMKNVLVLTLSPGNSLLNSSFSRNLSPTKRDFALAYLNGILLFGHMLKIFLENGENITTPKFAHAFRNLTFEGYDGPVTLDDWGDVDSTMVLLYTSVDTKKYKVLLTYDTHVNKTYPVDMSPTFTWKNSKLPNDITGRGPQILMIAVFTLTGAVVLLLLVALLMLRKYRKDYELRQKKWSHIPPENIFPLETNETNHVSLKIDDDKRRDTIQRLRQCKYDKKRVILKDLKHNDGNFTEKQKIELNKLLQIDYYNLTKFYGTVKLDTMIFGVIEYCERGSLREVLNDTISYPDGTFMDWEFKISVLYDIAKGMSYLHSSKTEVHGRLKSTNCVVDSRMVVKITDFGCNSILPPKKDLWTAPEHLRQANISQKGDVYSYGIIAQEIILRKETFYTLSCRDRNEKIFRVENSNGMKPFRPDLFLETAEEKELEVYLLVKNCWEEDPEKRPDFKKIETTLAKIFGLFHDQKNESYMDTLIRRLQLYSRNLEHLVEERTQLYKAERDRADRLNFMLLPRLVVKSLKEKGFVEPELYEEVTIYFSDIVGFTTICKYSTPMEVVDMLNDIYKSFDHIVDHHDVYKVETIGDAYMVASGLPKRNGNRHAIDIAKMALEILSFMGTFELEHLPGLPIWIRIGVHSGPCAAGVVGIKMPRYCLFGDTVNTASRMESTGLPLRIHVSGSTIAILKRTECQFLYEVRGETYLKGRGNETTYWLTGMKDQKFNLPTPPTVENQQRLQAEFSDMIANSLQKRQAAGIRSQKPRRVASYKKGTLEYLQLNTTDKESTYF

Chain of GC-C receptor (P25092 24-1073 limits assumed): as the sequence (P25092 24-1073) above

Molecule	EC50 (GC-C receptor) [nM]	half-life (in vitro [1]) [h]	half-life (in vitro [3]) [h]	EC50 of cGMP accumulation in human T84 cells (cGMP HTRF assay kit) [4] [nM]	further results
C[C@@H]1NC(=O)[C@@H]2CCCN2C(=O)[C@H](CC(N)=O)NC(=O)[C@@H]2CSSC[C@H](N)C(=O)N[C@H]3CSSC[C@H](NC1=O)C(=O)N[C@@H]([C@@H](C)O)C(=O)NCC(=O)N[C@H](C(=O)N[C@@H](Cc1ccc(O)cc1)C(=O)O)CSSC[C@H](NC(=O)[C@H](Cc1ccc(O)cc1)NC(=O)[C@H](CCC(=O)O)NC3=O)C(=O)N2 [Linaclotide, reference compound] (H-CCEYCCNPACTGCY-OH; disulfide 1-6, 2-10, 5-13 (inferred))	3.7 ± 0.5	0.8	> 8		absorption into the systemic circulation [2]: insignificant; amount excreted in the feces [2]: 3–5%
C[C@@H]1NC(=O)[C@@H]2CCCN2C(=O)[C@H](CC(N)=O)NC(=O)[C@@H]2CSSC[C@H](N)C(=O)N[C@H]3CSSC[C@H](NC1=O)C(=O)N[C@@H]([C@@H](C)O)C(=O)NCC(=O)N[C@H](C(=O)N[C@@H](Cc1ccc(O)cc1)C(N)=O)CSSC[C@H](NC(=O)[C@H](Cc1ccc(O)cc1)NC(=O)[C@H](CCC(=O)O)NC3=O)C(=O)N2 [Linaclotide-NH2] (H-CCEYCCNPACTGCY-NH2; disulfide 1-6, 2-10, 5-13)	7.2 ± 2.1	> 8	> 8		
C[C@@H]1NC(=O)[C@@H]2CCCN2C(=O)[C@H](CC(N)=O)NC(=O)[C@@H]2CSSC[C@H](N)C(=O)N[C@H]3CSSC[C@H](NC1=O)C(=O)N[C@@H]([C@@H](C)O)C(=O)NCC(=O)N[C@H](C(=O)N[C@H](Cc1ccc(O)cc1)C(N)=O)CSSC[C@H](NC(=O)[C@H](Cc1ccc(O)cc1)NC(=O)[C@H](CCC(=O)O)NC3=O)C(=O)N2 [[D-Tyr^14]-Linaclotide] (H-CCEYCCNPACTGC[dY]-NH2; disulfide 1-6, 2-10, 5-13)	16.5 ± 5.8	> 8	> 8		EC50/EC50 linaclotide fold (GC-C receptor): 4.5 fold
CC(C)[C@@H](NC(=O)[C@@H]1CSSC[C@@H]2NC(=O)[C@H](Cc3ccc(O)cc3)NC(=O)[C@H](CCC(=O)O)NC(=O)[C@@H]3CSSC[C@H](NC(=O)[C@H](C)NC(=O)[C@@H]4CCCN4C(=O)[C@H](CC(N)=O)NC(=O)[C@H](CSSC[C@H](N)C(=O)N3)NC2=O)C(=O)N[C@@H]([C@@H](C)O)C(=O)NCC(=O)N1)C(N)=O [[D-Val^14]-Linaclotide] (H-CCEYCCNPACTGC[dV]-NH2; disulfide 1-6, 2-10, 5-13)	104 ± 21.6	> 8	> 8		EC50/EC50 linaclotide fold (GC-C receptor): 28 fold; fold less potent than [D-Tyr^14]-Linaclotide (GC-C receptor): 6 fold
C[C@@H]1NC(=O)[C@@H]2CCCN2C(=O)[C@H](CC(N)=O)NC(=O)[C@@H]2CSSC[C@@H]3NC(=O)[C@H](Cc4ccc(O)cc4)NC(=O)[C@@H]4CSSC[C@H](NC(=O)[C@H](Cc5ccc(O)cc5)NC(=O)[C@H](CCC(=O)O)NC(=O)[C@H](CSSC[C@H](NC1=O)C(=O)N[C@@H]([C@@H](C)O)C(=O)NCC(=O)N4)NC3=O)C(=O)N2 [[cyclic]-Linaclotide] (cyclo(ACTGCYCCEYCCNP); disulfide 2-8, 5-11, 7-12)	2990 ± 929	> 8	> 8		EC50/EC50 linaclotide fold (GC-C receptor): 808 fold and ~800 fold
C[C@@H]1NC(=O)[C@@H]2CCCN2C(=O)[C@H](CC(N)=O)NC(=O)[C@@H]2CSSC[C@H](N)C(=O)N[C@H]3CSSC[C@H](NC1=O)C(=O)N[C@@H]([C@@H](C)O)C(=O)NCC(=O)N[C@H](C(N)=O)CSSC[C@H](NC(=O)[C@H](Cc1ccc(O)cc1)NC(=O)[C@H](CCC(=O)O)NC3=O)C(=O)N2 [[desTyr^14]-Linaclotide-NH2] (H-CCEYCCNPACTGC-NH2; disulfide 1-6, 2-10, 5-13)	33.7 ± 5.7	> 8	> 8		
Linaclotide (peptide)				3.7	
Linaclotide-NH2 (peptide)				7.2	
[D-Tyr^14]-Linaclotide (peptide)				16.5	
[D-Val^14]-Linaclotide (peptide)				104	
[Sec^1,6; D-Tyr^14]-Linaclotide (peptide)				5	
[cyclic]-Linaclotide (peptide)				2990	
[desTyr^14]-Linaclotide-NH2 (peptide)				33.7	
